Results as given in US20120165223A1 (priority 2006, published 2012).

Legend:
[1] = test system: glucuronidase; test: Fecal enzyme activity of flora of HFA mice: glucuronidase; assay type: in vivo, human intestinal normal bacterial flora
Method: (§1) For the one week, the feces were picked free from germs with the interval of two to three days. The feces collected at the day of colistin sulfate administration, 2nd, 4th, 7th, 10th, 13th, 17th and 20th days and at 3rd and 5th day after the stop of medication are put in an encapsulated tube and moved to an anaerobic chamber immediately and the activity of glucuomidase, glucosidase, nitrate reductase and azoreductase produced by the human intestinal normal bacterial flora is measured. As a result glucuronidase is decreased throughout the period of administration and the withdrawal period in comparison with control groups and is not recovered even at the 5th day since the medication is stopped. Glucosidase is increased during the medication period in comparison with the control groups. Nitrate reductase is increased in comparison with the control group at the start day of administration and the 2nd day of the medication but is recovered. Azoreductase is increased in comparison with the control group until the 7th day of medication and then decreased.

[2] = test system: aerobic bacteria; test: Composition of flora in feces of HFA mice: number of aerobic bacteria; assay type: in vivo; conditions: 7th, 10th and 13th day from the medication, 500 μg/Ml in drinking water
Excerpt: For the one week, the feces were picked asceptially with the interval of two to three days. The feces collected of colistin sulfate administeration, 2nd, 4th, 7th, 10th, 13th and 17th days are put in an encapsulated tube and moved to an anaerobic chamber immediately and is put in the PRAS (Prereduced and anaerobically sterilized) TGY medium with the ten times dilution of the weight of feces. The total number of anaerobic bacteria, the number of Bacteroides fragilis and Bifidobacterium spp. of the anaerobic bacteria, the number of aerobic bacteria, and the number of Esherichia coli and Enterococcus spp. of the aerobic bacteria are measured. […] (FIG. 7)

[3] = test system: glucosidase; test: Fecal enzyme activity of flora of HFA mice: glucosidase; assay type: in vivo, human intestinal normal bacterial flora
Method: as §1

[4] = test system: azoreductase; test: Fecal enzyme activity of flora of HFA mice: azoreductase; assay type: in vivo, human intestinal normal bacterial flora
Method: as §1

[5] = test system: Enterococcus spp.; test: Composition of flora in feces of HFA mice: Enterococcus spp.; assay type: in vivo; conditions: 4th and 27th day from the medication, 500 μg/Ml in drinking water
[6] = test system: nitrate reductase; test: Fecal enzyme activity of flora of HFA mice: nitrate reductase; assay type: in vivo, human intestinal normal bacterial flora
Method: as §1

[7] = 5th day since the medication is stopped

colistin sulfate
Glucuronidase activity, recovery [1, 7]: not recovered | Glucuronidase activity in comparison with control groups ([1]; throughout the period of administration and the withdrawal period): decreased | Number of aerobic bacteria in feces [2]: decreased | Glucosidase activity, recovery [3, 7]: not recovered | Glucosidase activity in comparison with the control groups ([3]; during the medication period): increased | Azoreductase activity, recovery [4, 7]: not even recovered | Azoreductase activity in comparison with the control group ([4]; after the 7th day of medication): decreased | Azoreductase activity in comparison with the control group ([4]; until the 7th day of medication): increased | Enterococcus spp. in feces [5]: decreased in similar way to the control group | Nitrate reductase activity, recovery ([6]; after the 2nd day of the medication): recovered | Nitrate reductase activity in comparison with the control group ([6]; start day of administration and 2nd day of the medication): increased
